The text below walks through data of patent US10851403B2, “Cyclin-dependent kinase substrate” (SYSMEX CORPORATION, priority 2017, dated 2020).

What all share (assay type): biochemical
One experiment deals with CDK4 and CDK6. Briefly: CDK reactivity test 2 (Test Example 2), CDK4/6 reactivity. Particulars: [(V2/V1)+(V4/V3)]/2; relative value when Comparative Polypeptide 2 is set as 1. The protocol: (§1) In a tube, 15 μL of a CDK solution (composition: 10 μg/mL CDK/cyclin complex, 1% BSA, triethanolamine buffer solution (pH 7.5)) containing CDK1/cyclin A2, CDK2/cyclin E1, CDK4/cyclin D3 or CDK6/cyclin D3 (all manufactured by SignalChem) and 15 μL of a kinase reaction solution (composition: 4 μg/mL substrate peptide, 50 mM HEPES-NaOH buffer solution (pH 7.4), 15 mM MgCl2, 2 mM ATP-γS) containing Polypeptide 1, Comparative Polypeptide 1 or Comparative Polypeptide 2 as a substrate peptide were mixed, and the tube was incubated at 37° C. for 1 hour with stirring at 900 rpm using a constant temperature shaker. 21.4 μL of a fluorescent labeling reagent (composition: 180 μg/ml 5-(iodoacetamide)-FITC, 50 mM EDTA, 300 mM MOPS-NaOH, pH 7.4) was added to the tube and pipetted 5 times, then the tube was shielded from light and incubated at 37° C. for 10 minutes with stirring at 400 rpm using a constant temperature shaker. 100 μL of a fluorescent labeling reaction stop solution (composition: 30 mM N-acetyl-L-cysteine, 2 M MOPS-NaOH, pH 7.4) was added to the tube and pipetted 5 times. 30 μL (containing 0.15 μg of magnetic St-Ab beads) of a HISCL HBsAg R2 reagent (manufactured by Sysmex Corporation) was added to the tube, then the tube was shielded from light and incubated at 37° C. for about 10 minutes with stirring at 1600 rpm using a constant temperature shaker. The beads in the tube were precipitated using a magnet, and the supernatant was removed. Then, TBS-T was added, and the beads were washed at 37° C. for about 10 seconds with stirring at 1600 rpm. This washing step was performed three times in total. 100 μL of an ALP-labeled anti-FITC antibody solution (composition: 0.2 to 1 μg/mL ALP-labeled anti-FITC antibody (manufactured by Jackson ImmunoResearch Laboratories, Inc.), 100 mM MES, 150 mM NaCl, 1% BSA, pH 6.5) was added to the tube, then the tube was shielded from light and incubated at 37° C. for about 10 minutes with stirring at 1600 rpm using a constant temperature shaker. The beads in the tube were precipitated using a magnet, and the supernatant was removed. Then, TBS-T was added, and the beads were washed at 37° C. for about 10 seconds with stirring at 1600 rpm. This washing step was performed three times in total. 50 μL of a buffer solution containing Tris (manufactured by Sysmex Corporation, HISCL R4 reagent) was added to the tube and stirred at 2000 rpm at 37° C. for 10 seconds using a constant temperature shaker. 100 μL of a buffer solution (manufactured by Sysmex Corporation, HISCL R5 reagent) containing an ALP luminescent substrate (disodium 2-chloro-5-(4-methoxyspiro{1,2-dioxetane-3,2′-(5′-chloro)-tricyclo[3.3.1.1^3,7]decan}-4-yl)-1-phenyl phosphate) was added to the tube, then the tube was shielded from light and incubated at 37° C. for 4 minutes with stirring at 1600 rpm using a constant temperature shaker. The beads in the tube were precipitated using a magnet, and the supernatant was transferred to a black plate. Luminescence was detected with a luminometer, and the luminescence intensity was measured.
Test Example 2 was carried out in the same manner as in Test Example 1 except that CDK4 or CDK6 was used as CDK and the polypeptides (Polypeptides 2 to 13) obtained in Production Example 2 or Comparative Polypeptide 2 was used as a substrate peptide. V1 to V4 below:
V 1: luminescence intensity when using Comparative Polypeptide 2 and CDK4,
V 2: luminescence intensity when using any of Polypeptides 2 to 17 and A to E, and CDK4,
V 3: luminescence intensity when using Comparative Polypeptide 2 and CDK6, and
V 4: luminescence intensity when using any of Polypeptides 2 to 17 and A to E, and CDK6
were measured, and CDK4/6 reactivity was calculated based on the formula ([(V2/V1)+(V4/V3)]/2). CDK4/6 reactivity is a relative value when the CDK4/6 reactivity of Comparative Polypeptide 2 is set as 1. […]

Another experiment addresses T1, CDK1/cyclin A2 (Homo sapiens, UniProt P06493).
T1 construct: purchased SignalChem
Briefly: CDK reactivity test 1 (Test Example 1). Conditions: 10 μg/mL CDK/cyclin complex, 4 μg/mL substrate peptide, ATP-γS, 37° C. 1 hour. The protocol: (§2) The reactivity of the polypeptide obtained in Production Example 1 to CDK1, CDK2, CDK4 and CDK6 was examined. Specifically, it was performed as follows.
as §1

Another experiment concerns the target T2, CDK2/cyclin E1 (Homo sapiens, UniProt P24941).
T2 construct: purchased SignalChem
Briefly: CDK reactivity test 1 (Test Example 1). Conditions: 10 μg/mL CDK/cyclin complex, 4 μg/mL substrate peptide, ATP-γS, 37° C. 1 hour. Here is the method:
as §2, §1

The target in another experiment is T3, CDK4/cyclin D3 (Homo sapiens, UniProt P11802).
T3 construct: purchased SignalChem
T3 sequence (P11802 whole entry): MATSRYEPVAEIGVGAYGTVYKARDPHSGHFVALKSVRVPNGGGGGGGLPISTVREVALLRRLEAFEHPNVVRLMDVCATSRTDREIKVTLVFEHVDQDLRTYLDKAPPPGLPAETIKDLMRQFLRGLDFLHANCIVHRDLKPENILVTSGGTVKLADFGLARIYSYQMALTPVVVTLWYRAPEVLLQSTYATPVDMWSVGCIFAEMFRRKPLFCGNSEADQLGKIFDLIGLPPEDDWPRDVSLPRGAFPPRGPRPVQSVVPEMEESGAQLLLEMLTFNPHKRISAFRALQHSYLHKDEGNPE
T3 sequence (P30281 whole entry partner): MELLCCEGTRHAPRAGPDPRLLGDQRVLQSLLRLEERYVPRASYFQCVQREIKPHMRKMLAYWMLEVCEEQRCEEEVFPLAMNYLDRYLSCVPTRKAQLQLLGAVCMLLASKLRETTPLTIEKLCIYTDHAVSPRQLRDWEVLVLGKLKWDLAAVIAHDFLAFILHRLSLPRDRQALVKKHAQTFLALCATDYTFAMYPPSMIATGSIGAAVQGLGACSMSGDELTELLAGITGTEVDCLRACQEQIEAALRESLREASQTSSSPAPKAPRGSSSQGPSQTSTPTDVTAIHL
Kind of experiment: CDK reactivity test 1 (Test Example 1). Particulars: 10 μg/mL CDK/cyclin complex, 4 μg/mL substrate peptide, ATP-γS, 37° C. 1 hour. The protocol: as §2, §1

For another experiment, the target named is T4, CDK6/cyclin D3 (Homo sapiens, UniProt Q00534).
T4 construct: purchased SignalChem
T4 sequence (Q00534 whole entry): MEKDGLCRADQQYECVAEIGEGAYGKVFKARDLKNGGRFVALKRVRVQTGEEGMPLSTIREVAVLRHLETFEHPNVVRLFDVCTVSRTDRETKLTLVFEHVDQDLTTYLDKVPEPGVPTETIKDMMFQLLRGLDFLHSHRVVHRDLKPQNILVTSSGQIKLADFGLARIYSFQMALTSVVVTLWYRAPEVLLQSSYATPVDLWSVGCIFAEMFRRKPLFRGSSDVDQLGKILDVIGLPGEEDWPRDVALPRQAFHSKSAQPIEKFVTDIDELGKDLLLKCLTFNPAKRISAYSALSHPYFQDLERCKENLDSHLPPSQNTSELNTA
T4 sequence (P30281 whole entry partner): as the sequence (P30281 whole entry partner) above
Briefly: CDK reactivity test 1 (Test Example 1). Particulars: 10 μg/mL CDK/cyclin complex, 4 μg/mL substrate peptide, ATP-γS, 37° C. 1 hour. Here is the method: as §2, §1

No end group written: not given here. *: point of attachment. Biotin = O=C1N[C@H]2[C@H](CS[C@H]2CCCCC(=O)*)N1; Ahx = NCCCCCC(=O)O

T1 sequence (P06493 whole entry): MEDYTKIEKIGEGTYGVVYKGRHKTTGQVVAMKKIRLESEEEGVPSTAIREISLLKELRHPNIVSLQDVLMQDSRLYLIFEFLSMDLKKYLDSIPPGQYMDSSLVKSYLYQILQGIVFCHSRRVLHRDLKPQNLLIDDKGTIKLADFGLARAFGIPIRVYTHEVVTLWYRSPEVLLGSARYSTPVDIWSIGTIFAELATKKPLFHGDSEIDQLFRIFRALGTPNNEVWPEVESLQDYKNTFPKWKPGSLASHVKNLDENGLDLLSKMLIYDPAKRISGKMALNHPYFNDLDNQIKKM
T1 sequence (P20248 whole entry partner): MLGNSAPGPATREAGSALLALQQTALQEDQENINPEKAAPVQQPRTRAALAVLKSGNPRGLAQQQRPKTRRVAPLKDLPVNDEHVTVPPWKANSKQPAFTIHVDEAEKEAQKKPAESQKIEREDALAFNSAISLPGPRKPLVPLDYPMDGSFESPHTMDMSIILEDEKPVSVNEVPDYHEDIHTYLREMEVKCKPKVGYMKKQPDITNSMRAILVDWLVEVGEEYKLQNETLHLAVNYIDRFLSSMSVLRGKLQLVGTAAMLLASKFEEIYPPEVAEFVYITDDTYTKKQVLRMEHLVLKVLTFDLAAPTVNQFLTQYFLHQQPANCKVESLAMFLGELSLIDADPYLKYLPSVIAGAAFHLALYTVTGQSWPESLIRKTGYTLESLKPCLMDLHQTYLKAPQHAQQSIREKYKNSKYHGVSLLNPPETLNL

“AMPWSPAPAARAGGG ({Biotin-Ahx}-AMPWSPAPAARAGGG) [Polypeptide F, mutant of Polypeptide 1, N-terminal biotin via aminohexane linker]”: the “CDK4/6 Reactivity” value with CDK4 and CDK6 is reported as 7.

As to “AMPWSPNPWWRGGGG ({Biotin-Ahx}-AMPWSPNPWWRGGGG) [Polypeptide 2, mutant of Polypeptide 1, N-terminal biotin via aminohexane linker]”, the “CDK4/6 Reactivity” value with CDK4 and CDK6 is recorded as 15.

Turning to “GAPWSPNPWWRGGGG ({Biotin-Ahx}-GAPWSPNPWWRGGGG) [Polypeptide 3, mutant of Polypeptide 1, N-terminal biotin via aminohexane linker]”, the “CDK4/6 Reactivity” value in the experiment on CDK4 and CDK6 is 33.

“GMAWSPNPWWRGGGG ({Biotin-Ahx}-GMAWSPNPWWRGGGG) [Polypeptide 4, mutant of Polypeptide 1, N-terminal biotin via aminohexane linker]”: the “CDK4/6 Reactivity” value with CDK4 and CDK6 was 5.

For “GMFWSPNPWWRGGGG ({Biotin-Ahx}-GMFWSPNPWWRGGGG) [Polypeptide D, mutant of Polypeptide 1, N-terminal biotin via aminohexane linker]”, in the experiment on CDK4 and CDK6, the “CDK4/6 Reactivity” value amounted to 5.

For “GMPASPNPWWRGGGG ({Biotin-Ahx}-GMPASPNPWWRGGGG) [Polypeptide 5, mutant of Polypeptide 1, N-terminal biotin via aminohexane linker]”, the “CDK4/6 Reactivity” value with CDK4 and CDK6 is given as 1.

Consider “GMPFSPNPWWRGGGG ({Biotin-Ahx}-GMPFSPNPWWRGGGG) [Polypeptide 13, mutant of Polypeptide 1, N-terminal biotin via aminohexane linker]”, for which, in the experiment with CDK4 and CDK6, the “CDK4/6 Reactivity” value is recorded as 5.

For “GMPWSANPWWRGGGG ({Biotin-Ahx}-GMPWSANPWWRGGGG) [Polypeptide 6, mutant of Polypeptide 1, N-terminal biotin via aminohexane linker]”, in the experiment on CDK4 and CDK6, the “CDK4/6 Reactivity” value came out at 1.

With “GMPWSFNPWWRGGGG ({Biotin-Ahx}-GMPWSFNPWWRGGGG) [Polypeptide 16, mutant of Polypeptide 1, N-terminal biotin via aminohexane linker]”, the “CDK4/6 Reactivity” value in the experiment with CDK4 and CDK6 is 2.

In the case of “GMPWSPAPWWRGGGG ({Biotin-Ahx}-GMPWSPAPWWRGGGG) [Polypeptide 7, mutant of Polypeptide 1, N-terminal biotin via aminohexane linker]”, in the experiment with CDK4 and CDK6, the “CDK4/6 Reactivity” value came to 8.

Regarding “GMPWSPNAWWRGGGG ({Biotin-Ahx}-GMPWSPNAWWRGGGG) [Polypeptide 8, mutant of Polypeptide 1, N-terminal biotin via aminohexane linker]”, in the experiment with CDK4 and CDK6, the “CDK4/6 Reactivity” value came to 7.

Take “GMPWSPNPAWRGGGG ({Biotin-Ahx}-GMPWSPNPAWRGGGG) [Polypeptide 9, mutant of Polypeptide 1, N-terminal biotin via aminohexane linker]”: the “CDK4/6 Reactivity” value in the experiment with CDK4 and CDK6 is 7.

As for “GMPWSPNPWARGGGG ({Biotin-Ahx}-GMPWSPNPWARGGGG) [Polypeptide 10, mutant of Polypeptide 1, N-terminal biotin via aminohexane linker]”, the “CDK4/6 Reactivity” value in the experiment with CDK4 and CDK6 was found to be 15.

With “GMPWSPNPWWAGGGG ({Biotin-Ahx}-GMPWSPNPWWAGGGG) [Polypeptide 11, mutant of Polypeptide 1, N-terminal biotin via aminohexane linker]”, the “CDK4/6 Reactivity” value with CDK4 and CDK6 is recorded as 3.

Consider “GMPWSPNPWWHGGGG ({Biotin-Ahx}-GMPWSPNPWWHGGGG) [Polypeptide A, mutant of Polypeptide 1, N-terminal biotin via aminohexane linker]”, for which the “CDK4/6 Reactivity” value in the experiment on CDK4 and CDK6 is 7.

In the case of “GMPWSPNPWWKGGGG ({Biotin-Ahx}-GMPWSPNPWWKGGGG) [Polypeptide B, mutant of Polypeptide 1, N-terminal biotin via aminohexane linker]”, in the experiment with CDK4 and CDK6, the “CDK4/6 Reactivity” value is 5.

As for “GMPWSPNPWWRAGGG ({Biotin-Ahx}-GMPWSPNPWWRAGGG) [Polypeptide 12, mutant of Polypeptide 1, N-terminal biotin via aminohexane linker]”, the “CDK4/6 Reactivity” value in the experiment with CDK4 and CDK6 stood at 6.

Take “GMPWSPNPWWRGGGG ({Biotin-Ahx}-GMPWSPNPWWRGGGG) [Polypeptide 1, N-terminal residue biotin-modified via a linker (aminohexane)]”: the Luminescence intensity was 93,190,919 in the experiment with CDK1/cyclin A2, 99,167,362 with CDK2/cyclin E1, 101,127,359 with CDK4/cyclin D3 and 122,281,045 in the experiment with CDK6/cyclin D3. The “CDK4/6 Reactivity” value with CDK4 and CDK6 stood at 13.

In the case of “GMPWSWNPWWRGGGG ({Biotin-Ahx}-GMPWSWNPWWRGGGG) [Polypeptide 15, mutant of Polypeptide 1, N-terminal biotin via aminohexane linker]”, the “CDK4/6 Reactivity” value with CDK4 and CDK6 was 2.

Regarding “GMPWSYNPWWRGGGG ({Biotin-Ahx}-GMPWSYNPWWRGGGG) [Polypeptide 17, mutant of Polypeptide 1, N-terminal biotin via aminohexane linker]”, the “CDK4/6 Reactivity” value in the experiment on CDK4 and CDK6 turned out to be 2.

Regarding “GMPYSPNPWWRGGGG ({Biotin-Ahx}-GMPYSPNPWWRGGGG) [Polypeptide 14, mutant of Polypeptide 1, N-terminal biotin via aminohexane linker]”, the “CDK4/6 Reactivity” value in the experiment on CDK4 and CDK6 was determined as 5.

In the case of “GMWWSPNPWWRGGGG ({Biotin-Ahx}-GMWWSPNPWWRGGGG) [Polypeptide C, mutant of Polypeptide 1, N-terminal biotin via aminohexane linker]”, in the experiment on CDK4 and CDK6, the “CDK4/6 Reactivity” value is reported as 5.

Take “GMYWSPNPWWRGGGG ({Biotin-Ahx}-GMYWSPNPWWRGGGG) [Polypeptide E, mutant of Polypeptide 1, N-terminal biotin via aminohexane linker]”: the “CDK4/6 Reactivity” value in the experiment with CDK4 and CDK6 came out at 6.

In the case of “PYKISEGLPTPTKMTPRSRI ({Biotin-Ahx}-PYKISEGLPTPTKMTPRSRI) [Comparative Polypeptide 1, partial peptide of Rb protein which is an in vivo substrate of CDK; N-terminal biotin via aminohexane linker]”, the Luminescence intensity is 67,564,327 with CDK1/cyclin A2, 104,410,578 with CDK2/cyclin E1, 810,674 with CDK4/cyclin D3 and 7,417,238 in the experiment with CDK6/cyclin D3.

“RRRFRPASPLRGPPK ({Biotin-Ahx}-RRRFRPASPLRGPPK) [Comparative Polypeptide 2, polypeptide known as a substrate of CDK4 and CDK6; N-terminal biotin via aminohexane linker]”: the Luminescence intensity with CDK1/cyclin A2 was 41,516,306; with CDK2/cyclin E1, 16,211,368; in the experiment with CDK4/cyclin D3, 5,439,800; with CDK6/cyclin D3, 17,316,904.
